pIC50: −log10 of the molar value.
Target: T1, human S1P1 receptors (Homo sapiens, UniProt P21453)
T1 construct: host or cells: HEK293
Experiment: S1P1R antagonist assay (fluorescent membrane potential dye, cAMP readout)
Assay type: cell-based
Settings: HEK293 cells expressing human S1P1 receptors and CNG channel; 500 nM NECA; S1P1R agonist 10 nM; 90 minutes; read-out: EC50 or IC50 value

T1 sequence (P21453 whole entry): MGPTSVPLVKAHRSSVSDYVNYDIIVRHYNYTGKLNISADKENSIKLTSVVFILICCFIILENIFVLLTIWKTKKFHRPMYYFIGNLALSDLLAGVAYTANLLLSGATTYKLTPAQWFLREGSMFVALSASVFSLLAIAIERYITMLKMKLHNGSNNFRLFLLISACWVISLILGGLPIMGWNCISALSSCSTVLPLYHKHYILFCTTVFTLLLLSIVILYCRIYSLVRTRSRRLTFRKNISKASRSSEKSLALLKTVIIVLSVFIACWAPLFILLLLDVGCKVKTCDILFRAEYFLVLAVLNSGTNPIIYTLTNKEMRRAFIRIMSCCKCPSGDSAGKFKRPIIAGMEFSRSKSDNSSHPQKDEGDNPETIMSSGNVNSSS

Compound | pIC50
COc1cc(OC)cc(C(=O)NC(COCc2ccccc2)C(=O)Nc2ccc(Oc3ccccc3)cc2)c1 (stereo not drawn) [Compound 316, 3,5-bis(methyloxy)-N-(2-oxo-1-{[(phenylmethyl)oxy]methyl}-2-{[4-(phenyloxy)phenyl]amino}ethyl)benzamide] | < 6.00
CC1CCN(CC(=O)N[C@@H](COCc2ccccc2)C(=O)Nc2ccc(Oc3ccc(F)cc3)cc2)CC1 [Compound 130, (S)-3-(benzyloxy)-N-(4-(4-fluorophenoxy)phenyl)-2-(2-(4-methylpiperidin-1-yl)acetamido)propanamide] | < 6.00
CCOc1ccc(CC(=O)NC(COCc2ccccc2)C(=O)Nc2ccc(Oc3ccccc3)cc2)cc1 (stereo not drawn) [Compound 343, N-(2-oxo-1-{[(phenylmethyl)oxy]methyl}-2-{[4-(phenyloxy)phenyl]amino}ethyl)-2-(4-ethoxyphenyl)acetamide] | < 6.00
Cc1nc(C)n(CC(=O)N[C@@H](COCc2ccccc2)C(=O)Nc2ccc(Oc3ccc(F)cc3)cc2)n1 [Compound 256, (S)-3-(benzyloxy)-2-(2-(3,5-dimethyl-1H-1,2,4-triazol-1-yl)acetamido)-N-(4-(4-fluorophenoxy)phenyl)propanamide] | ≥ 6.52
O=C(CN1CCC2CCCCC2C1)N[C@@H](COCc1ccccc1)C(=O)Nc1ccc(Oc2ccc(F)cc2)cc1 (stereo partly drawn) [Compound 222, (2S)-3-(benzyloxy)-N-(4-(4-fluorophenoxy)phenyl)-2-(2-(octahydroisoquinolin-2(1H)-yl)acetamido)propanamide] | 6.00 to 6.52
CS(=O)(=O)c1ccc(C(=O)NC(COCc2ccccc2)C(=O)Nc2ccc(Oc3ccccc3)cc2)c(Cl)c1 (stereo not drawn) [Compound 334, 2-chloro-4-(methylsulfonyl)-N-(2-oxo-1-{[(phenylmethyl)oxy]methyl}-2-{[4-(phenyloxy)phenyl]amino}ethyl)benzamide] | < 6.00
O=C(Nc1ccc(Oc2ccc(F)cc2)cc1)[C@@H]1C[C@@H](Cc2ccccc2)CN1C(=O)CN1CCSCC1 [Compound 83, (2S,4R)-4-benzyl-N-(4-(4-fluorophenoxy)phenyl)-1-(2-thiomorpholinoacetyl)pyrrolidine-2-carboxamide] | ≥ 6.52
O=C(NC(COCc1ccccc1)C(=O)Nc1ccc(Oc2ccccc2)cc1)C1CCN(c2nccc(C(F)(F)F)n2)CC1 (stereo not drawn) [Compound 302, N-(2-oxo-1-{[(phenylmethyl)oxy]methyl}-2-{[4-(phenyloxy)phenyl]amino}ethyl)-1-[4-(trifluoromethyl)pyrimidin-2-yl]piperidine-4-carboxamide] | < 6.00
O=C(Cc1cnc[nH]1)N[C@@H](COCc1ccccc1)C(=O)Nc1ccc(OC2CCCCC2)cc1 [Compound 208, (S)-2-(2-(1H-imidazol-5-yl)acetamido)-3-(benzyloxy)-N-(4-(cyclohexyloxy)phenyl)propanamide] | 6.00 to 6.52
CC/C=C/CC(=O)N[C@@H](COCc1ccccc1)C(=O)Nc1ccc(Oc2ccc(F)cc2)cc1 [Compound 232, (S,E)-N-(3-(benzyloxy)-1-(4-(4-fluorophenoxy)phenylamino)-1-oxopropan-2-yl)hex-3-enamide] | < 6.00
O=C(Nc1ccc(Oc2ccc(F)cc2)cc1)[C@@H]1C[C@@H](Cc2ccc(F)cc2Cl)CN1C(=O)Cn1nccn1 [Compound 5, (2S,4R)-1-(2-(2H-1,2,3-triazol-2-yl)acetyl)-4-(2-chloro-4-fluorobenzyl)-N-(4-(4-fluorophenoxy)phenyl)pyrrolidine-2-carboxamide] | ≥ 6.52
O=C(Cc1c[nH]cn1)N[C@@H](COCc1ccc(F)cc1)C(=O)Nc1ccc(Oc2ccc(F)cc2)cc1 [Compound 133, (S)-2-(2-(1H-imidazol-5-yl)acetamido)-3-(4-fluorobenzyloxy)-N-(4-(4-fluorophenoxy)phenyl)propanamide] | ≥ 6.52
COCC(=O)N1C[C@H](Cc2ccccc2)C[C@H]1C(=O)Nc1ccc(Oc2ccc(F)cc2)cc1 [Compound 122, (2S,4R)-4-benzyl-N-(4-(4-fluorophenoxy)phenyl)-1-(2-methoxyacetyl)pyrrolidine-2-carboxamide] | ≥ 6.52
O=C(NC(COCc1ccccc1)C(=O)Nc1ccc(Oc2ccccc2)cc1)c1nc2ccccc2nc1O (stereo not drawn) [Compound 395, 3-hydroxy-N-(2-oxo-1-{[(phenylmethyl)oxy]methyl}-2-{[4-(phenyloxy)phenyl]amino}ethyl)quinoxaline-2-carboxamide] | < 6.00
O=C(CCC(=O)c1cccs1)NC(COCc1ccccc1)C(=O)Nc1ccc(Oc2ccccc2)cc1 (stereo not drawn) [Compound 312, 4-oxo-N-(2-oxo-1-{[(phenylmethyl)oxy]methyl}-2-{[4-(phenyloxy)phenyl]amino}ethyl)-4-(2-thienyl)butanamide] | < 6.00
O=C(Nc1ccc(Oc2ccc(F)cc2)cc1)[C@@H]1C[C@H](Cc2ccc(F)cc2)CN1C(=O)Cn1cncn1 [Compound 76, (2S,4S)-1-(2-(1H-1,2,4-triazol-1-yl)acetyl)-4-(4-fluorobenzyl)-N-(4-(4-fluorophenoxy)phenyl)pyrrolidine-2-carboxamide] | ≥ 6.52
O=C(Cn1nnc2ccccc21)N[C@@H](COCc1ccccc1)C(=O)Nc1ccc(Oc2ccc(F)cc2)cc1 [Compound 151, (S)-2-(2-(1H-benzo[d][1,2,3]triazol-1-yl)acetamido)-3-(benzyloxy)-N-(4-(4-fluorophenoxy)phenyl)propanamide] | ≥ 6.52
O=C(CN1CCN(C(=O)C2CCCO2)CC1)N[C@@H](COCc1ccccc1)C(=O)Nc1ccc(Oc2ccc(F)cc2)cc1 (stereo partly drawn) [Compound 237, (2S)-3-(benzyloxy)-N-(4-(4-fluorophenoxy)phenyl)-2-(2-(4-(tetrahydrofuran-2-carbonyl)piperazin-1-yl)acetamido)propanamide] | 6.00 to 6.52
O=C(Cc1cnc[nH]1)N[C@@H](Cc1ccccc1)C(=O)Nc1ccc(Oc2ccc(Cl)cc2)cc1 [Compound 204, (S)-2-(2-(1H-imidazol-5-yl)acetamido)-N-(4-(4-chlorophenoxy)phenyl)-3-phenylpropanamide] | 6.00 to 6.52
CCOCCN1CCN(CC(=O)N[C@@H](COCc2ccccc2)C(=O)Nc2ccc(Oc3ccc(F)cc3)cc2)CC1 [Compound 242, (S)-3-(benzyloxy)-N-(4-(4-fluorophenoxy)phenyl)-2-(2-(4-(2-ethoxyethyl)piperazin-1-yl)acetamido)propanamide] | 6.00 to 6.52
O=C(CCC1CCCC1)NC(COCc1ccccc1)C(=O)Nc1ccc(Oc2ccccc2)cc1 (stereo not drawn) [Compound 278, N-(2-oxo-1-{[(phenylmethyl)oxy]methyl}-2-{[4-(phenyloxy)phenyl]amino}ethyl)-3-cyclopentylpropanamide] | < 6.00
Nc1nc(C(F)(F)F)nn1CC(=O)N1C[C@H](Cc2ccccc2)C[C@H]1C(=O)Nc1ccc(Oc2ccc(F)cc2)cc1 [Compound 11, (2S,4R)-1-(2-(5-amino-3-(trifluoromethyl)-1H-1,2,4-triazol-1-yl)acetyl)-4-benzyl-N-(4-(4-fluorophenoxy)phenyl)pyrrolidine-2-carboxamide] | ≥ 6.52
O=C(Cc1cccs1)NC(COCc1ccccc1)C(=O)Nc1ccc(Oc2ccccc2)cc1 (stereo not drawn) [Compound 293, N-(2-oxo-1-{[(phenylmethyl)oxy]methyl}-2-{[4-(phenyloxy)phenyl]amino}ethyl)thien-2-ylacetamide] | < 6.00
CCOCCC(=O)NC(COCc1ccccc1)C(=O)Nc1ccc(Oc2ccccc2)cc1 (stereo not drawn) [Compound 376, N-(2-oxo-1-{[(phenylmethyl)oxy]methyl}-2-{[4-(phenyloxy)phenyl]amino}ethyl)-3-ethoxypropanamide] | < 6.00

— patent US8791102B2, “Acetanilide sphingosine-1-phosphate receptor antagonists” (Exelixis, Inc., priority 2008, dated 2014)
